Experimental findings from US11891362B1, “N2,N4-disubstituted pyrimidine-2,4-diamine compounds as antibacterial agents” (KING FAISAL UNIVERSITY, priority 2023, dated 2024) are described below.

As usually defined, the pIC50 is the negative decadic logarithm of the IC50, by convention in mol/L. By MIC is commonly meant the least concentration at which growth counts as inhibited.

For one experiment, the target named is T1, DNA gyrase from E. coli (Escherichia coli, UniProt P0AES4+P0AES6).
T1 construct: purchased Inspiralis
Kind of experiment: Inhibitory activities on E. coli DNA gyrase (Inspiralis assay). In kind it is biochemical. As for the experimental part:
First, the plates were rehydrated with buffer (20 mM Tris-HCl with pH 7.6, 0.01% w/v BSA, 0.05% v/v Tween 20, 137 mM NaCl) and the biotinylated oligonucleotide was then immobilized. After washing off the unbound oligonucleotide, the enzyme test was performed. The reaction volume of 30 μL in buffer (35 mM Tris×HCl with pH 7.5, 4 mM MgCl2, 24 mM KCl, 2 mM DTT, 1.8 mM spermidine, 1 mM ATP, 6.5% w/v glycerol, 0.1 mg/mL albumin) contained 1.5 U of DNA gyrase from E. coli, 0.75 μg of relaxed pNO1 plasmid, and 3 μL solution of the inhibitor in 10% DMSO and 0.008% Tween 20. Reaction solutions were incubated at 37° C. for 30 min. After that, the TF buffer (50 mM NaOAc with pH 5.0, 50 mM NaCl and 50 mM MgCl2) was added to terminate the enzymatic reaction. After additional incubation for 30 min at rt, during which biotinoligonucleotide-plasmid triplex was formed, the unbound plasmid was washed off using TF buffer and SybrGOLD in T10 buffer (10 mM Tris HCl with pH 8.0 and 1 mM EDTA) was added. The fluorescence was measured with a microplate reader (BioTek Synergy H4, excitation: 485 nm, emission: 535 nm). Initial screening was done at 100 or 10 μM concentration of inhibitors. […] GraphPad Prism software was used to calculate the IC50 values. The result is given as the average value of three independent measurements.

In experiment [1] the test system is Mycobacterium tuberculosis H37Rv strain. Kind of experiment: Anti-tubercular properties, alamar blue microplate assay. In kind it is cell-based. To be noted: 168 h, seven days incubation, read-out: anti-mycobacterial activity (MIC). A general note: The colour change of resazurin is a common sign of viable cells or microbes.
The test system of experiment [2] is Staphylococcus aureus ATCC BAA-1556 (MERSA resistant). Kind of experiment: In vitro antibacterial activity, dilution susceptibility test (CLSI M07-A10). Format: cell-based. As to conditions: ATCCBAA1556. From the text:
(§1) Enterococcus faecium resistant to VRE, and Gram-negative organisms including Klebsiella pneumonia, Escherichia coli, Pseudomonas aeruginosa.

The subject of experiment [3] is Staphylococcus aureus ATCC 29213. Described as above. In kind it is cell-based. As to conditions: ATCC29213.
Text: as §1

For experiment [4], the system named is Enterococcus faecium ATCC 51559 (VRE resistant). The description is as above. Format: cell-based.
Text: as §1

Experiment [5] deals with Pseudomonas aeruginosa MTCC 741. Described as above. As to conditions: MTCC741. In kind it is cell-based.
Text: as §1

The subject of experiment [6] is Klebsiella pneumonia MTCC 618. The description is as above. Format: cell-based. To be noted: Klebsiella pneumoniae, MTCC618.
Text: as §1

Experiment [7] concerns Enterococcus faecium ATCC 35667. Described as above. Format: cell-based. To be noted: ATCC35667.
Text: as §1

Experiment [8] concerns Escherichia coli MTCC 443. Described as above. Format: cell-based. To be noted: MTCC443.
Text: as §1

Experiment [9] deals with Bacillus subtilis MTCC 441. The experiment is described as above. In kind it is cell-based. To be noted: MTCC441.
Text: as §1

Experiment [10] has as its system Staphylococcus epidermidis. Described as above. Format: cell-based.
Text: as §1

pIC50: −log10 of the molar value. Values after ≈ are worked out from the molar mass of the structure shown. Like-named read-outs stand apart in the source and are kept apart here. Bounds are passed on as bounds.

T1 sequence (P0AES4 whole entry, one chain of several): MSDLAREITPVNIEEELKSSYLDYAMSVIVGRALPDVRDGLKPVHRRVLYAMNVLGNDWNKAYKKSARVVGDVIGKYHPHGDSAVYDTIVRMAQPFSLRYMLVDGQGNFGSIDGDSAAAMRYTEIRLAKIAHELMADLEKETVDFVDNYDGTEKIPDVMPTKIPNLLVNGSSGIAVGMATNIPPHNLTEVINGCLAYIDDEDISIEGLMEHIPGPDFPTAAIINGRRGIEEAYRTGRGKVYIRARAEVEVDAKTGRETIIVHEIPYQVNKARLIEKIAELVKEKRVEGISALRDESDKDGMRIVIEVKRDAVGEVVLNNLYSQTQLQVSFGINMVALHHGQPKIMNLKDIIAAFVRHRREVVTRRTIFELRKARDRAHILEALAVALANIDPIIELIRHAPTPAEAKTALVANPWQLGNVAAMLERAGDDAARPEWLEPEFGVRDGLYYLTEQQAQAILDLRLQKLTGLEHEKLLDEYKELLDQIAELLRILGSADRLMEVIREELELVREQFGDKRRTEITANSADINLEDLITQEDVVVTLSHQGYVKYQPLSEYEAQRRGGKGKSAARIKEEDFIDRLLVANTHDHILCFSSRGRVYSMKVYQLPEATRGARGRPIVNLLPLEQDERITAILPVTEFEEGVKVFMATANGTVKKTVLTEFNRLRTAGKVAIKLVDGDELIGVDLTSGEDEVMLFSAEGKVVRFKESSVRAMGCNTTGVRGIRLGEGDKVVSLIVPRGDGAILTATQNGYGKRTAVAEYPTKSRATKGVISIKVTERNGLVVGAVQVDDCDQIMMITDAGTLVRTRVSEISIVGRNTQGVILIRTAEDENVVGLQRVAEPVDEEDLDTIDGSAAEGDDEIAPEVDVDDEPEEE

As for `CC(=O)Nc1cccc(Nc2nccc(Nc3ccc(C(=O)O)cc3CN(C)C3CCCCC3)n2)c1` [Compound 7, 4-((2-((3-acetamidophenyl)amino)pyrimidin-4-yl)amino)-3-((cyclohexyl(methyl)amino)methyl)benzoic acid], the pIC50 at DNA gyrase from E. coli is 6.60. The MIC stood at 16 µg/mL (≈ 32.7 µM) in [1]; 8 µg/mL (≈ 16.4 µM) in experiment [2]; 8 µg/mL (≈ 16.4 µM) in experiment [3]; 16 µg/mL (≈ 32.7 µM) in experiment [4]; 4 µg/mL (≈ 8.19 µM) in experiment [5] (Pseudomonas aeruginosa MTCC 741, read-out: MIC); 4 µg/mL (≈ 8.19 µM) in [6] (Klebsiella pneumonia MTCC 618, read-out: MIC). The MIC is 4 µg/mL (≈ 8.19 µM) in experiment [7], 8 µg/mL (≈ 16.4 µM) in experiment [8], 4 µg/mL (≈ 8.19 µM) in [9] and 8 µg/mL (≈ 16.4 µM) in experiment [10].
With `CN[C@H](CC(C)C)C(=O)N[C@H]1C(=O)N[C@@H](CC(N)=O)C(=O)N[C@H]2C(=O)N[C@H]3C(=O)N[C@H](C(=O)N[C@H](C(=O)O)c4cc(O)cc(O)c4-c4cc3ccc4O)[C@H](O)c3ccc(c(Cl)c3)Oc3cc2cc(c3O[C@@H]2O[C@H](CO)[C@@H](O)[C@H](O)[C@H]2O[C@H]2C[C@](C)(N)[C@H](O)[C@H](C)O2)Oc2ccc(cc2Cl)[C@H]1O` [Vancomycin, reference compound], the MIC in [5] (Pseudomonas aeruginosa) and in experiment [6] was greater than 128 µg/mL throughout.
